35 molecules from ChEMBL document CHEMBL4483862, “Open-source discovery of chemical leads for next-generation chemoprotective antimalarials” (2018) can be followed below.

The experiment has as its system Plasmodium berghei. The experiment is described as follows: Luciferase/luciferin-expressing antifolate-resistant parasites were used to infect a culture of HepG2 cells that were pre-incubated with compounds. Infected hepatocytes emit light due to the luciferase reaction. Assay results are presented as the percent inhibition of light emission compared to control. […]. The format is functional. The note with it: sporozoite; for IC90: read-out: LUCIFERASE INFECTION ASSAY - IC90.

Where [1] appears, read: read-out: LUCIFERASE INFECTION ASSAY - IC50.

SMILES strings stand for the structures.

With `CC(=O)c1c(C)cc(C)c(CNc2ccc(NC(=O)C3CC3)cc2C(F)(F)F)c1C`, the IC90 is 4.59 µM. Where the note is “HEPG2TOX_HILL_SLOPE 10.3, HEPG2TOX_R_SQUARED 0.233, PBLUC_HILL_SLOPE 1.48, PBLUC_R_SQUARED 0.914, read-out: LUCIFERASE INFECTION ASSAY - IC50”, the half-maximal inhibitory concentration (IC50) is 1.03 µM.

As to `CC1(c2ccccc2)NC(=O)N(NC(=O)c2ccc(-c3ccccc3)cc2)C1=O` (stereo not given), the IC90 was greater than 10 µM. Under “PBLUC_HILL_SLOPE 2.29, PBLUC_R_SQUARED 0.368, read-out: LUCIFERASE INFECTION ASSAY - IC50”, the IC50 stood at 6.98 µM.

As to `COc1ccc(OC)c(/C=C/C(=O)Nc2cc(C(F)(F)F)ccc2Oc2ccc(Br)cc2)c1`, the IC90 is greater than 10 µM. Moreover, the IC50 (FFLUC_HILL_SLOPE 11.8, FFLUC_R_SQUARED 0.49, HEPG2TOX_HILL_SLOPE 2.88, HEPG2TOX_R_SQUARED 0.666, read-out: LUCIFERASE INFECTION ASSAY - IC50) was greater than 10 µM.

`CCOc1ccc2nc(SCC(=O)N3Cc4ccccc4CC3C(=O)O)sc2c1` (stereo not given): the 90% effect concentration (IC90) is greater than 10 µM. In addition, under setting [1], the IC50 is greater than 10 µM.

As for `Cc1oc2cc(OC(C)C(=O)Nc3cccc([N+](=O)[O-])c3)ccc2c(=O)c1-c1ccccc1` (stereo not given), the IC90 was greater than 10 µM. Further, under setting [1], the concentration for half-maximal inhibition (IC50) came to 8.01 µM.

As for `CCOC(=O)c1c(-c2ccccc2)oc2ccc(NS(=O)(=O)c3ccc(CC)cc3)cc12`, the IC90 is 9.53 µM. Further, the IC50 (FFLUC_HILL_SLOPE 0.825, FFLUC_R_SQUARED 0.206, HEPG2TOX_HILL_SLOPE 3.18, HEPG2TOX_R_SQUARED 0.941, PBLUC_HILL_SLOPE 22.5, PBLUC_R_SQUARED 0.586, read-out: LUCIFERASE INFECTION ASSAY - IC50) is 8.65 µM.

As for `CCc1ccccc1-n1c(SCCn2c(=O)oc3ccccc32)nc2ccccc2c1=O`, the IC90 is greater than 10 µM. Besides, the IC50 under setting [1] is greater than 10 µM.

With `COc1ccc(/C=C2\c3ccccc3Cn3c2nc(=O)c2c4c(sc23)CCCC4)cc1`, the IC90 came to 8.28 µM. Further, the IC50 (PBLUC_HILL_SLOPE 2.2, PBLUC_R_SQUARED 0.219, read-out: LUCIFERASE INFECTION ASSAY - IC50) came to 3.06 µM.

On to `CCOc1cccc(-c2cn3c(-c4ccc(C(=O)N(C)C)cc4)cnc3cn2)c1`, for which the IC90 worked out at 3.39 µM. The IC50 (PBLUC_HILL_SLOPE 14.8, PBLUC_R_SQUARED 0.204, read-out: LUCIFERASE INFECTION ASSAY - IC50) amounted to 2.92 µM.

In the case of `FC(F)(F)c1cccc(Nc2nnnc3ccccc23)c1`, the IC90 was 3.71 µM. The IC50 (PBLUC_HILL_SLOPE 1.72, PBLUC_R_SQUARED 0.746, read-out: LUCIFERASE INFECTION ASSAY - IC50) was 1.03 µM.

Consider `CCOC(=O)C1(C)CCCN1C(=O)c1cccs1` (stereo not given), for which the 90% effect concentration (IC90) was greater than 12.3 µM. Also, under setting [1], the IC50 was greater than 12.3 µM.

As to `N#CC(C#N)=NNc1ccc(OC(F)(F)F)cc1`, the IC90 was greater than 13 µM. For the same molecule, the IC50 (HEPG2TOX_HILL_SLOPE 11.1, HEPG2TOX_R_SQUARED 0.969, PBLUC_HILL_SLOPE 0.201, PBLUC_R_SQUARED 0.0877, read-out: LUCIFERASE INFECTION ASSAY - IC50) turned out to be 0.245 µM.

As to `Cc1cc(-c2cn3c(-c4ccc5ncccc5c4)cnc3cn2)cc(C)c1O`, the IC90 is greater than 9.01 µM. Under setting [1], the half-maximal inhibitory concentration (IC50) came to 8.6 µM.

In the case of `CNS(=O)(=O)c1ccc(C(=O)Nc2ccc(Nc3ccccc3)cc2)o1`, the concentration for an effect of 90% (IC90) came out at 1.18 µM. Under “HEPG2TOX_HILL_SLOPE 2.07, HEPG2TOX_R_SQUARED 0.347, PBLUC_HILL_SLOPE 43.9, PBLUC_R_SQUARED 0.459, read-out: LUCIFERASE INFECTION ASSAY - IC50”, the IC50 is 1.12 µM.

As for `COc1ccc(C(C)(C)C)cc1NC(=O)C(=O)c1c(-c2ccccc2)cc2ccccn12`, the concentration for an effect of 90% (IC90) was 8.89 µM. Also, the half-maximal inhibitory concentration (IC50) (PBLUC_HILL_SLOPE 2.71, PBLUC_R_SQUARED 0.442, read-out: LUCIFERASE INFECTION ASSAY - IC50) turned out to be 3.95 µM.

Regarding `O=c1c(Cl)c(Cl)cnn1-c1ccc(S(=O)(=O)NCCCOCC2CC2)cc1`, the IC90 worked out at 4.65 µM. Further, for the setting “HEPG2TOX_HILL_SLOPE 15.7, HEPG2TOX_R_SQUARED 0.58, PBLUC_HILL_SLOPE 8.81, PBLUC_R_SQUARED 0.0863, read-out: LUCIFERASE INFECTION ASSAY - IC50”, the IC50 stood at 3.62 µM.

Consider `Brc1ccc(OCc2ccccc2)c(CNCc2ccccn2)c1`, for which the IC90 worked out at 6.94 µM. Further, for the setting “PBLUC_HILL_SLOPE 4.81, PBLUC_R_SQUARED 0.436, read-out: LUCIFERASE INFECTION ASSAY - IC50”, the IC50 was 4.39 µM.

Consider `O=C(CN1CCN(C(=O)C2COc3ccccc3O2)CC1)Nc1ccccc1-c1ccccc1` (stereo not given), for which the concentration for an effect of 90% (IC90) is greater than 10 µM. Under setting [1], the half-inhibitory concentration (IC50) is greater than 10 µM.

Turning to `CN(C)CCNC(=O)c1cccc(-c2cnc3ccc(-c4cccc(NS(C)(=O)=O)c4)nn23)c1`, the IC90 was found to be 1.3 µM. Further, under “HEPG2TOX_HILL_SLOPE 1.31, HEPG2TOX_R_SQUARED 0.978, PBLUC_HILL_SLOPE 2.06, PBLUC_R_SQUARED 0.888, read-out: LUCIFERASE INFECTION ASSAY - IC50”, the half-maximal inhibitory concentration (IC50) is 0.447 µM.

In the case of `CC(C)(C)c1cc(C(=O)N/N=C/c2ccc([N+](=O)[O-])s2)[nH]n1`, the concentration for an effect of 90% (IC90) was greater than 10.3 µM. The IC50 (PBLUC_HILL_SLOPE 1.97, PBLUC_R_SQUARED 0.294, read-out: LUCIFERASE INFECTION ASSAY - IC50) was found to be 3.6 µM.

In the case of `Cc1ccc(-c2nc(C)sc2CC(=O)NC2CCN(C3CC3)C2)cc1` (stereo not given), the 90% effect concentration (IC90) was greater than 10 µM. For the same molecule, the IC50 under setting [1] is greater than 10 µM.

Take `CC(=O)Nc1ccc(OC(=O)c2cc(C(C)(C)C)nn2Cc2c(C)cc(C)cc2C)cc1`: the concentration for an effect of 90% (IC90) was 3.69 µM. Moreover, the half-inhibitory concentration (IC50) (FFLUC_HILL_SLOPE 42.8, FFLUC_R_SQUARED 0.589, PBLUC_HILL_SLOPE 8.27, PBLUC_R_SQUARED 0.64, read-out: LUCIFERASE INFECTION ASSAY - IC50) was 2.83 µM.

For the molecule `Cc1cnc(NC(=O)c2ccc(CN3CCCCC3)cc2)s1`, the 90% effect concentration (IC90) was greater than 10 µM. Moreover, where the note is “FFLUC_HILL_SLOPE 0.622, FFLUC_R_SQUARED 0.84, HEPG2TOX_HILL_SLOPE 8.37, HEPG2TOX_R_SQUARED 0.336, PBLUC_HILL_SLOPE 1, PBLUC_R_SQUARED 0.657, read-out: LUCIFERASE INFECTION ASSAY - IC50”, the IC50 was found to be 1.28 µM.

As to `CN1C/C(=C\c2ccccc2Cl)C(=O)/C(=C/c2ccccc2Cl)C1`, the IC90 was 3.58 µM. The 50% inhibitory concentration (IC50) (HEPG2TOX_HILL_SLOPE 12.3, HEPG2TOX_R_SQUARED 0.936, PBLUC_HILL_SLOPE 378, PBLUC_R_SQUARED 0.452, read-out: LUCIFERASE INFECTION ASSAY - IC50) is 3.56 µM.

For the molecule `CCOc1ccccc1C=C(c1nc2ccccc2s1)c1nc2ccccc2s1`, the IC90 amounted to 9.81 µM. Besides, for the setting “PBLUC_HILL_SLOPE 3.78, PBLUC_R_SQUARED 0.344, read-out: LUCIFERASE INFECTION ASSAY - IC50”, the IC50 worked out at 5.48 µM.

`O=C(CNc1ccc(C(F)(F)F)cc1Cl)Nc1cccc(C(=O)NC2CC2)c1`: the concentration for an effect of 90% (IC90) was 7.38 µM. Besides, under “PBLUC_HILL_SLOPE 3.94, PBLUC_R_SQUARED 0.579, read-out: LUCIFERASE INFECTION ASSAY - IC50”, the 50% inhibitory concentration (IC50) was 4.23 µM.

On to `CN(C)Cc1ccc(CNc2ncnc3scc(-c4ccccc4)c23)cc1`, for which the IC90 amounted to 2.66 µM. Besides, the half-maximal inhibitory concentration (IC50) under setting [1] was 0.704 µM.

On to `Cc1ccsc1C(=O)Nc1nc2cc3c(cc2s1)OCCO3`, for which the 90% effect concentration (IC90) was greater than 10 µM. For the same molecule, the concentration for half-maximal inhibition (IC50) (HEPG2TOX_HILL_SLOPE 1.74, HEPG2TOX_R_SQUARED 0.923, PBLUC_HILL_SLOPE 0.323, PBLUC_R_SQUARED 0.422, read-out: LUCIFERASE INFECTION ASSAY - IC50) is 0.658 µM.

`CC(C)(C)C(=O)c1sc2c(c1N)c(=O)[nH]c(=O)n2C1CCCCC1`: the IC90 is 3.47 µM. In addition, where the note is “PBLUC_HILL_SLOPE 15.3, PBLUC_R_SQUARED 0.0878, read-out: LUCIFERASE INFECTION ASSAY - IC50”, the IC50 stood at 3.01 µM.

In the case of `O=C(Cc1cn2ccsc2n1)NNC(=O)c1cccnc1Nc1cccc(C(F)(F)F)c1`, the concentration for an effect of 90% (IC90) was found to be 7.63 µM. Moreover, the IC50 (HEPG2TOX_HILL_SLOPE 6.77, HEPG2TOX_R_SQUARED 0.513, PBLUC_HILL_SLOPE 2.49, PBLUC_R_SQUARED 0.696, read-out: LUCIFERASE INFECTION ASSAY - IC50) is 3.16 µM.

Turning to `NC(=O)C(C(=O)/C=C/c1ccc(Cl)cc1)=C1SCS1`, the IC90 is 4.75 µM. Under “PBLUC_HILL_SLOPE 78.5, PBLUC_R_SQUARED 0.479, read-out: LUCIFERASE INFECTION ASSAY - IC50”, the half-inhibitory concentration (IC50) was 4.62 µM.

On to `COc1ccc(S(=O)(=O)OCCSc2ccc([N+](=O)[O-])c3nonc23)cc1`, for which the IC90 was greater than 8.02 µM. Moreover, the IC50 (FFLUC_HILL_SLOPE 1.23, FFLUC_R_SQUARED 0.562, read-out: LUCIFERASE INFECTION ASSAY - IC50) was greater than 8.02 µM.

As to `CC(=O)c1cccc(-c2cnc3ccc(-c4cccc(N)c4)nn23)c1`, the concentration for an effect of 90% (IC90) came out at 3.85 µM. Further, where the note is “HEPG2TOX_HILL_SLOPE 0.765, HEPG2TOX_R_SQUARED 0.894, PBLUC_HILL_SLOPE 1.06, PBLUC_R_SQUARED 0.553, read-out: LUCIFERASE INFECTION ASSAY - IC50”, the IC50 is 0.481 µM.

As for `CC/N=c1\scc(-c2cc(C)c(C)cc2C)n1/N=C/c1c[nH]c2ccccc12`, the IC90 was 6.13 µM. Also, where the note is “PBLUC_HILL_SLOPE 4.53, PBLUC_R_SQUARED 0.847, read-out: LUCIFERASE INFECTION ASSAY - IC50”, the half-maximal inhibitory concentration (IC50) is 3.77 µM.

Take `CC(Nc1ccc(Oc2ccc(Br)cc2)cc1)C(=O)Nc1ccc(S(N)(=O)=O)cc1` (stereo not given): the IC90 is greater than 10 µM. The 50% inhibitory concentration (IC50) (FFLUC_HILL_SLOPE 6.08, FFLUC_R_SQUARED 0.0812, PBLUC_HILL_SLOPE 2.58, PBLUC_R_SQUARED 0.863, read-out: LUCIFERASE INFECTION ASSAY - IC50) is 4.82 µM.
